For assay [1], the target named is T1, TRPC5 (Homo sapiens, UniProt Q9UL62).
T1 construct: expressed in transfected cells; host or cells: HEK293 FITR (inducible expression)
T1 sequence (Q9UL62 1-973): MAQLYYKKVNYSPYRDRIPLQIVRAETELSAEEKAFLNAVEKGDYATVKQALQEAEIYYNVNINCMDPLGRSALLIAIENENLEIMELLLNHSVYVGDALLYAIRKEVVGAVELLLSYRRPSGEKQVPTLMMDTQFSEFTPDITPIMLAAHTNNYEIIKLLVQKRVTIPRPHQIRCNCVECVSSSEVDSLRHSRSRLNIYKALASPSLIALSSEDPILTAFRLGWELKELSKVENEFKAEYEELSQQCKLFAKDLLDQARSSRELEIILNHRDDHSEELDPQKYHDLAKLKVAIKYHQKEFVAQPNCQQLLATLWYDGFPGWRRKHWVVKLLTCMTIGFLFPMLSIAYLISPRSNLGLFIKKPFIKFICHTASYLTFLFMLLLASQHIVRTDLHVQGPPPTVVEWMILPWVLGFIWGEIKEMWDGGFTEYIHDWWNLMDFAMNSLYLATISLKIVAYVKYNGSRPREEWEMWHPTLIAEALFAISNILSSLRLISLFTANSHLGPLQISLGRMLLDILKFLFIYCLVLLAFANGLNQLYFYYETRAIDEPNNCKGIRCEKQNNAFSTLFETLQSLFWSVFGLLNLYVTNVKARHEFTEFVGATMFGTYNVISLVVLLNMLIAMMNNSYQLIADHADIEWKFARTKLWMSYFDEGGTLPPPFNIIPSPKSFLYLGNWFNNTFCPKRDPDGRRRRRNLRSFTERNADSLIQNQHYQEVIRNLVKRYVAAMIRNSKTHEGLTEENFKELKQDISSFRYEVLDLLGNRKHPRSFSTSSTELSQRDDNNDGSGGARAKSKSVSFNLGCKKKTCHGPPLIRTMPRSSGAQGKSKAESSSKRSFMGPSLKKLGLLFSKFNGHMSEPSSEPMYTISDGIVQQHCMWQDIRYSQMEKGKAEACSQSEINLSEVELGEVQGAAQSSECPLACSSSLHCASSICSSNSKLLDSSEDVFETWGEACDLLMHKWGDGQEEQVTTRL
Put plainly: Whole-cell patch clamp, AlF4- activated TRPC5 HEK293 cells. In kind it is cell-based. Particulars: 10 μM 2-APB, used for background calculation. The protocol: Channels were indirectly excited with the same stimulus for better comparability of the norgestimate effect. Aluminium tetrafluoride (AIF^4−) applied intracellularly via the patch pipette activates G-proteins by mimicking GTP (Sternweis & Gilman, 1982; Bigay et al., 1987).
Since these channels are potentiated by micromolar La^3+ concentrations (Jung et al., 2003), 2-aminoethoxydiphenyl borate (2-APB), a characterized TRPC5 blocker (Xu et al., 2005) was used instead.
Effect of 10 μM norgestimate (NG) on whole-cell currents evoked by AlF4^− infusion into induced TRPC6— (A) and TRPC5 HEK 293 (B) cells. Whole cell currents recorded at −70 mV (left panels) and the corresponding current-voltage (I-V) relationships are shown (right panels). […] The curves were obtained during voltage ramps from −100 to +80 mV. (C) Statistical analysis of the norgestimate effect on TRPC5— and TRPC6-mediated currents.

The target in a further assay is T2, TRPC6 (Homo sapiens, UniProt Q9Y210).
T2 construct: expressed in transfected cells; host or cells: HEK293 (inducible expression)
T2 sequence (Q9Y210 1-931): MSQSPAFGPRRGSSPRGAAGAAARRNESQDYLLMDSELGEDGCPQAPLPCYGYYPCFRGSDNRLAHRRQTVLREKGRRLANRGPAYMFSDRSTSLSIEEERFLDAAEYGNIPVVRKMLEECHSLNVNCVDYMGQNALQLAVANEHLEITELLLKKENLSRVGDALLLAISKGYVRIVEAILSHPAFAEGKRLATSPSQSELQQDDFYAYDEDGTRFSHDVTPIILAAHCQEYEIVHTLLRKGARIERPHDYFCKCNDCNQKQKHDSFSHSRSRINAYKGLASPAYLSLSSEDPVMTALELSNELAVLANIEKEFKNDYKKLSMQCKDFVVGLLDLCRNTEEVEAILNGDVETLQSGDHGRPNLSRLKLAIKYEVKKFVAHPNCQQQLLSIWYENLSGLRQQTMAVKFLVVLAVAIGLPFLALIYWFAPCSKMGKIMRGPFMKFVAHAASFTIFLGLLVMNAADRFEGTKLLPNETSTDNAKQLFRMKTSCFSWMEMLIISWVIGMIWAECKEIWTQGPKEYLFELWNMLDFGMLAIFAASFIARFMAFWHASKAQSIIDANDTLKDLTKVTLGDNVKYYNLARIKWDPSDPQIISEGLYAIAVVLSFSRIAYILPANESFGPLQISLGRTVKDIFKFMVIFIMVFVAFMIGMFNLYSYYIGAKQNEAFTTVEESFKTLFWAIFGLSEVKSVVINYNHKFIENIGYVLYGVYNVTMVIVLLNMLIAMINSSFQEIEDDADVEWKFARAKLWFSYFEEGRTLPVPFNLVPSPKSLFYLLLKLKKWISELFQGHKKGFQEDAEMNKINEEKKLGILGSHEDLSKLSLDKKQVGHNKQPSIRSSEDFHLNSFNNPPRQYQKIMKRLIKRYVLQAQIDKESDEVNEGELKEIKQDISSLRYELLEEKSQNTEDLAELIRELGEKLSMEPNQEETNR
Put plainly: Whole-cell patch clamp, AlF4- activated TRPC6 HEK293 cells. In kind it is cell-based. Particulars: 10 μM La3+, used for background calculation. The source says: Inhibition of TRPC6- and TRPC5-mediated Ca^2+ -influx by norgestimate monitored in fluorometric experiments with cell populations was validated and compared with whole-cell patch clamp recordings of single cells. Channels were indirectly excited with the same stimulus for better comparability of the norgestimate effect. Aluminium tetrafluoride (AIF^4−) applied intracellularly via the patch pipette activates G-proteins by mimicking GTP (Sternweis & Gilman, 1982; Bigay et al., 1987). Subsequently TRPC channels are stimulated and mediate non-specific cationic currents (FIG. 3 A, B) When 10 μM norgestimate were applied to activated TRPC6 channels, 89.9 ±3.1% (n=15) of the current measured at resting membrane potential was blocked. This inhibition was reversible as current amplitude increased after norgestimate wash out (FIG. 3 A).
Effect of 10 μM norgestimate (NG) on whole-cell currents evoked by AlF4^− infusion into induced TRPC6— (A) and TRPC5 HEK 293 (B) cells. Whole cell currents recorded at −70 mV (left panels) and the corresponding current-voltage (I-V) relationships are shown (right panels). […] The curves were obtained during voltage ramps from −100 to +80 mV. (C) Statistical analysis of the norgestimate effect on TRPC5— and TRPC6-mediated currents. 10 μM norgestimate inhibit 25.9±5.7% (n=20) of TRPC5-mediated currents and 89.9±3.1% (n=15) of TRPC6-mediated currents (P<0.001, Wilcoxon test, two-sided).

Assay [2] concerns the target T1, TRPC5. Particulars: micromolar concentrations (Jung et al., 2003); cited from earlier work.

For `NCCOB(c1ccccc1)c1ccccc1` [2-APB, 2-aminoethoxydiphenyl borate], the “block of TRPC5 channel” value at TRPC5 [1] was “completely and reversibly blocked”.
On to `[La]` [lanthanum], for which the “block of TRPC6 current” value on TRPC6 is “complete and reversible”; on TRPC6 (listed as La^3+) it was “completely blocked”. The “effect of micromolar La3+ concentrations on TRPC5 channels” value at TRPC5 [2] was “potentiated”.

Values taken from US8455469B2, “Use of norgestimate as a selective inhibitor of TRPC3, TRPC6 and TRPC7 ion channels” (Sanofi, priority 2007, dated 2013).
